The NIST ThermoML archive (doi:10.1016/j.fluid.2015.04.014)
± gives the expanded uncertainty stated by the source.

Conditions: Crystal; visual observation

Normal melting temperature: 198.00 ± 4 °C
Structure (SMILES): CC1(C)[C@@H]2CC[C@@]1(CS(=O)(=O)O)C(=O)C2 [(1S)-(+)-10-camphorsulfonic acid]
